Source: PubChem BioAssay (NCI)
Values after ≈ are worked out from the molar mass of the structure shown. Values joined by “and” are separate entries in the source; they are usually repeats but may differ in a detail not shown here. Identical values can stand only once.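 All cell lines were grown in 96-well plates and treated with compound for 48 hours. GI50 is the concentration that inhibits growth by half. TGI marks complete inhibition of growth.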

Assays:
Assay in all cases: growth of human tumour cells (NCI), 48 h
786-0 renal = system: 786-0 renal
BT-549 breast = system: BT-549 breast
HCC-2998 colon = system: HCC-2998 colon
KM12 colon = system: KM12 colon
MDA-N = system: MDA-N
OVCAR-3 ovarian = system: OVCAR-3 ovarian
OVCAR-5 ovarian = system: OVCAR-5 ovarian
SK-MEL-5 melanoma = system: SK-MEL-5 melanoma
TK-10 renal = system: TK-10 renal
U251 CNS = system: U251 CNS
NCI/ADR-RES ovarian = system: NCI/ADR-RES ovarian

**Q.** How did the TGI (786-0 renal) turn out when `Cn1c(N)nc(-c2ccc(Cl)cc2)c1SSc1c(-c2ccc(Cl)cc2)nc(N)n1C` was run?
**A.** 3.43 µM

**Q.** What about the TGI (BT-549 breast) of the same compound?
**A.** 5.19 µM

**Q.** What about the TGI (HCC-2998 colon) of the same compound?
**A.** 20.7 µM

**Q.** And the TGI (KM12 colon)?
**A.** 3.46 µM

**Q.** What about the TGI (MDA-N) of the same compound?
**A.** 3.34 µM

**Q.** And the TGI (OVCAR-3 ovarian)?
**A.** 3.54 µM

**Q.** And the TGI (OVCAR-5 ovarian)?
**A.** 3.26 µM

**Q.** What about the TGI (SK-MEL-5 melanoma) of the same compound?
**A.** 3.2 µM

**Q.** And the TGI (TK-10 renal)?
**A.** 3.32 µM

**Q.** What about the TGI (U251 CNS) of the same compound?
**A.** 4.19 µM

**Q.** `NS(=O)(=O)c1ccc(/C=C/c2ccc(O)cc2)cc1` was tested. Which TGI (786-0 renal) did it give?
**A.** 89.6 µM

**Q.** And the TGI (HCC-2998 colon)?
**A.** 40.6 µM

**Q.** And the GI50 (KM12 colon)?
**A.** 11.1 µM

**Q.** What about the TGI (KM12 colon) of the same compound?
**A.** 30 µM

**Q.** And the TGI (MDA-N)?
**A.** > 100 µM

**Q.** What about the TGI (NCI/ADR-RES ovarian) of the same compound?
**A.** > 100 µM

**Q.** What about the TGI (OVCAR-3 ovarian) of the same compound?
**A.** 54.5 µM

**Q.** And the TGI (OVCAR-5 ovarian)?
**A.** > 100 µM

**Q.** And the TGI (SK-MEL-5 melanoma)?
**A.** 29 µM

**Q.** What about the TGI (TK-10 renal) of the same compound?
**A.** > 100 µM

**Q.** What about the GI50 (U251 CNS) of the same compound?
**A.** 15 µM

**Q.** And the TGI (U251 CNS)?
**A.** > 100 µM

**Q.** For `O=C(c1ccccc1)N1C(=S)N(c2ccccn2)C(=Nc2ccccc2)C1=Nc1ccccc1`, which TGI (786-0 renal) is on record?
**A.** > 82.8 µM

**Q.** And the TGI (HCC-2998 colon)?
**A.** > 100 µM

**Q.** What about the TGI (KM12 colon) of the same compound?
**A.** 19 µM

**Q.** And the TGI (MDA-N)?
**A.** > 50.7 µM

**Q.** And the TGI (NCI/ADR-RES ovarian)?
**A.** > 48.3 µM

**Q.** And the TGI (OVCAR-3 ovarian)?
**A.** 45.6 µM

**Q.** What about the TGI (OVCAR-5 ovarian) of the same compound?
**A.** > 44.3 µM

**Q.** What about the TGI (SK-MEL-5 melanoma) of the same compound?
**A.** > 50 µM

**Q.** And the TGI (TK-10 renal)?
**A.** 88.2 µM

**Q.** And the TGI (U251 CNS)?
**A.** 39.6 µM

**Q.** What does the source list for `Cc1ccc(N(C)S(=O)(=O)c2ccccc2[N+](=O)[O-])cc1`?
**A.** TGI (786-0 renal): > 100 µM; TGI (BT-549 breast): 61.7 µM; TGI (KM12 colon): > 100 µM; TGI (MDA-N): > 100 µM; TGI (NCI/ADR-RES ovarian): > 100 µM; TGI (OVCAR-3 ovarian): > 100 µM; TGI (OVCAR-5 ovarian): > 100 µM; TGI (TK-10 renal): > 100 µM; TGI (U251 CNS): > 100 µM

**Q.** `CC(=O)CC1=C(OC(C)C)C2(OCCO2)C1O` (stereo not given) was tested. Which TGI (786-0 renal) did it give?
**A.** > 100 µM

**Q.** And the TGI (BT-549 breast)?
**A.** > 100 µM

**Q.** What about the TGI (KM12 colon) of the same compound?
**A.** > 100 µM

**Q.** And the TGI (MDA-N)?
**A.** > 100 µM

**Q.** What about the TGI (OVCAR-3 ovarian) of the same compound?
**A.** > 100 µM

**Q.** What about the TGI (OVCAR-5 ovarian) of the same compound?
**A.** > 100 µM

**Q.** What about the TGI (SK-MEL-5 melanoma) of the same compound?
**A.** > 100 µM

**Q.** What about the TGI (TK-10 renal) of the same compound?
**A.** > 100 µM

**Q.** What about the TGI (U251 CNS) of the same compound?
**A.** > 100 µM

**Q.** For `COc1cc2c(c(OC)c1OC)-c1ccc(SC)cc1C(O)CC2` (stereo not given), which TGI (786-0 renal) is on record?
**A.** > 100 µM

**Q.** And the TGI (BT-549 breast)?
**A.** 41 µg/mL

**Q.** What about the TGI (HCC-2998 colon) of the same compound?
**A.** 18.3 µM

**Q.** And the TGI (KM12 colon)?
**A.** < 0.01 µM

**Q.** And the TGI (MDA-N)?
**A.** 0.461 µM

**Q.** What about the TGI (OVCAR-3 ovarian) of the same compound?
**A.** > 100 µM

**Q.** What about the GI50 (OVCAR-5 ovarian) of the same compound?
**A.** 0.249 µg/mL (≈ 0.719 µM)

**Q.** What about the TGI (OVCAR-5 ovarian) of the same compound?
**A.** > 100 µM

**Q.** And the TGI (SK-MEL-5 melanoma)?
**A.** 1.11 µM and 15.1 µg/mL

**Q.** What about the GI50 (TK-10 renal) of the same compound?
**A.** 14.2 µg/mL (≈ 41 µM)

**Q.** What about the TGI (TK-10 renal) of the same compound?
**A.** > 100 µM

**Q.** With `CCOC(=O)C(Cl)(NC(=O)OCc1ccccc1)C(F)(F)F` (stereo not given) as the compound, how does the TGI (786-0 renal) read?
**A.** > 100 µM

**Q.** What about the TGI (HCC-2998 colon) of the same compound?
**A.** > 100 µM

**Q.** And the TGI (KM12 colon)?
**A.** > 100 µM

**Q.** What about the TGI (MDA-N) of the same compound?
**A.** > 100 µM

**Q.** And the TGI (NCI/ADR-RES ovarian)?
**A.** > 100 µM

**Q.** And the TGI (OVCAR-3 ovarian)?
**A.** > 100 µM

**Q.** And the TGI (OVCAR-5 ovarian)?
**A.** > 100 µM

**Q.** And the TGI (SK-MEL-5 melanoma)?
**A.** > 100 µM

**Q.** What about the TGI (TK-10 renal) of the same compound?
**A.** > 100 µM

**Q.** And the TGI (U251 CNS)?
**A.** > 100 µM

**Q.** What does the source list for `Cc1ccc(N/C(SCc2ccccc2)=C(\C(Cl)=C(Cl)Cl)[N+](=O)[O-])c(C)c1`?
**A.** TGI (786-0 renal): 54.3 µM; TGI (BT-549 breast): 36.5 µM; TGI (HCC-2998 colon): > 100 µM; TGI (KM12 colon): > 100 µM; TGI (MDA-N): 65.1 µM; TGI (NCI/ADR-RES ovarian): 56.5 µM; TGI (OVCAR-3 ovarian): 40.2 µM; TGI (OVCAR-5 ovarian): 89.8 µM; TGI (U251 CNS): 29.3 µM

**Q.** How did the TGI (786-0 renal) turn out when `CN1CC2CN(Cc3ccccc3)CCN2c2cccnc21` (stereo not given) was run?
**A.** > 100 µM

**Q.** And the TGI (BT-549 breast)?
**A.** > 100 µM

**Q.** And the TGI (KM12 colon)?
**A.** 89.1 µM

**Q.** And the TGI (MDA-N)?
**A.** > 100 µM

**Q.** What about the TGI (NCI/ADR-RES ovarian) of the same compound?
**A.** > 100 µM

**Q.** What about the TGI (OVCAR-3 ovarian) of the same compound?
**A.** > 100 µM

**Q.** And the TGI (OVCAR-5 ovarian)?
**A.** > 100 µM

**Q.** And the TGI (SK-MEL-5 melanoma)?
**A.** > 100 µM

**Q.** What about the TGI (TK-10 renal) of the same compound?
**A.** > 100 µM

**Q.** And the TGI (U251 CNS)?
**A.** > 100 µM

**Q.** How did the TGI (786-0 renal) turn out when `O=C(N/N=C/c1ccccc1)c1cccc2nc3ccccc3nc12` was run?
**A.** > 100 µM

**Q.** What about the TGI (BT-549 breast) of the same compound?
**A.** > 100 µM

**Q.** What about the TGI (KM12 colon) of the same compound?
**A.** > 100 µM

**Q.** And the TGI (MDA-N)?
**A.** > 100 µM

**Q.** What about the TGI (NCI/ADR-RES ovarian) of the same compound?
**A.** > 100 µM

**Q.** What about the TGI (OVCAR-3 ovarian) of the same compound?
**A.** > 100 µM

**Q.** What about the TGI (OVCAR-5 ovarian) of the same compound?
**A.** > 100 µM

**Q.** What about the TGI (SK-MEL-5 melanoma) of the same compound?
**A.** 18 µM

**Q.** And the TGI (TK-10 renal)?
**A.** > 100 µM

**Q.** And the TGI (U251 CNS)?
**A.** > 100 µM

**Q.** Which results are given for `C#CC1(O)CCCCCCCCC2(CCCCCCCC1)OCCO2`?
**A.** TGI (786-0 renal): 31.4 µM; TGI (HCC-2998 colon): 29.5 µM; TGI (KM12 colon): 34.6 µM; TGI (MDA-N): 35.9 µM; TGI (NCI/ADR-RES ovarian): 34.7 µM; TGI (OVCAR-3 ovarian): 29.3 µM; TGI (OVCAR-5 ovarian): 37.8 µM; TGI (SK-MEL-5 melanoma): 33.4 µM; TGI (TK-10 renal): 37 µM; TGI (U251 CNS): 30.8 µM
